“Also recorded” adds a separate entry of the source.
Key:
mesenteric arteries = test: Relaxation of adrenaline precontracted rat mesenteric arteries; conditions: AP39 1-5 μM, FIG. 23 D
Experimental: (§1) The rings of thoracic aorta (approx. 3-4-mm diameter) or mesenteric artery were prepared from male Wistar rats and were mounted for recording of isometric tension changes in pneumoxid-oxygenated (95% O2:CO2, 37° C.) Krebs-bicarbonate solution as described in Ling et al., 2008 Circulation 117 […]. The aortic ring was pre-contracted with 200 nmol/l adrenaline and the effect of AP39 was evaluated (FIG. 23).

[1] = test system: transcription factor Nrf2; test: Nrf2 activation, luciferase reporter in AREc32 cells; type: cell-based, human; conditions: FIG. 34
Experimental: Nrf2 activation was studied in AREc32 cells. This stable cell line is derived from MCF-7 cells transfected with a construct containing eight copies of the rat glutathione-S-transferase-A2 Antioxidant Response […] Element (ARE) and the SV40 promoter sequence upstream of a firefly luciferase reporter gene (Wang, X. J. et al., 2006, Cancer Res, 66, 10983-94). […] After 4 h the treatments were removed and the cells were treated with sulforaphane (12.5 μM), an Nrf2-activator and positive control, for 24 hrs. Nrf-2 activation (luciferase activity) was then assessed by luminescence with a BMG labtech Omega microplate reader (FIG. 34). Data are expressed as fold induction of luciferase activity normalised to cell biomass (sulforhodamine B).

[2] = test system: spontaneously hypertensive (SHR) rats; test: Blood pressure, heart rate and breathing rate of anaesthetised SHR rats; type: in vivo, rat
Experimental: (§2) The catheter was inserted into the right jugular vein of male wistar rats or male spontaneously hypertensive (SHR) rats so as to reach the right atrium. Anesthesia (ZOLELIT, VIRBAC, 40 mg/kg to leg) and Xylazine 2%. AP39 solutions were prepared in 4 μl DMSO then mixed with 100 μl Krebs solution and immediately applied for 10 sec. (FIGS. 20, 21 and 22).
(§3) Blood pressure, heart rate and breathing rate were all measured at the same time, in accordance with Ling et al., 2008 Circulation 117 2351-2360.

peroxiredoxin 3 (Prx3) = test: Western blot of mitochondrial peroxiredoxin 3 oxidation in THP-1 cells; type: cell-based, human
Experimental: Human THP-1 (monocytic) cells were exposed to an oxidative stress inducing agent (hydrogen peroxide; H2O2, 25 μM) in the presence or absence of the mitochondria-targeted H2S donor AP39.
In the experiment resulting in FIG. 32, the human THP-1 (monocytic) cells were exposed to 25 μM H2O2 for 4 hours in the absence or presence of different concentrations of AP39 (given in μM).
In the experiment resulting in FIG. 33, the human THP-1 (monocytic) cells were exposed to different concentrations of AP39 (given in μM) for 4 hours followed by the addition of 25 μM H2O2 for 1 minute.
In both experiments, after these time periods the levels of native mitochondrial matrix protein peroxiredoxin 3 (Prx3) (dimer, molecular weight 37 kDa) and over-oxidised Prx3 (monomer, molecular weight 25 kDa) were determined by standard western blotting procedures (M Whiteman et al (FASEB J, 2004, 18, 1395-1397) (FIGS. 32 and 33).

[3] = test system: anaesthetised Wistar rats; test: Blood pressure, heart rate and breathing rate of anaesthetised Wistar rats; type: in vivo, rat; conditions: for blood pressure / breathing rate / heart rate: anaesthetised Wistar rats
Experimental: The mean arterial blood pressure (MAP) of anaesthetised Wistar rats was measured by a pressure transducer in the carotid artery. In ex vivo experiments, effects of AP39 were studied on noradrenaline precontracted rat aortic rings (see below). The single channel properties of intracellular chloride channels from rat heart were studied using the bilayer lipid membrane method (see below).
as §2, §3

[4] = test system: chloride channels derived from rat heart sarcoplasmic reticulum; test: Single channel properties of chloride channels in bilayer lipid membrane; type: biochemical
Experimental: Sarcoplasmic reticulum (SR) vesicles, isolated from rat heart, were fused into bilayer lipid membrane separating the cis and trans chambers, and electrical current through the single chloride channel was measured. […] The single channel parameters: Open probability, current-voltage relationship, reversal potential, mean open and close time and single current amplitude were evaluated (FIGS. 24-28).

HMEC [5] = test: Intracellular oxidative stress measurements (DCFDA assay); type: cell-based, human; conditions: for 4-HNE-derived intracellular oxidant species (DCFDA assay): FIGS. 14 and 15; for time dependent increase in intracellular oxidative stress (DCFDA assay): FIG. 15
Experimental: HMEC were incubated with H2S donor compounds for 5 hrs then H2O2, […] or SIN-1 were added for 2 hrs. Intracellular oxidative stress was then assessed using dichlorofluorescein diacetate (added at a final concentration of 10 μM) and fluorescence detected using a Gemini M2e microplate reader at 37° C. (excitation wavelength, 488 nm, emission wavelength 525 nm). The method was performed in accordance with the method described by M. Whiteman et al (Meths. Mol. Biol., 2008, 476, 29-50).

[6] = test system: Human brain microvascular endothelial cells (HMEC); test: Prevention of cell death induced by oxidants (SIN-1, H2O2, 4-HNE), Alamar Blue; type: cell-based
HMEC [7] = test: Mitochondrial membrane potential (ΔΨm), tetramethylrhodamine methyl ester; type: cell-based, human; conditions: H2O2, SIN-1 or 4-HNE, FIG. 13
Experimental: HMEC were incubated with H2S donor compounds for 5 hrs followed by the addition of oxidants SIN-1 (500 μM), H2O2 (50 μM) or […] (10 μM) for 24 hrs. After this time the mitochondria-specific potentiometric dye tetramethylrhodamine methyl ester (200 nM) was added and fluorescence was determined using a Gemini M2e microplate reader (excitation wavelength 548 nm, emission wavelength 573 nm). The method was performed in accordance with the method described by M. Whiteman et al (FASEB J, 2004, 18, 1395-1397).

inflammasome [8] = test: Inhibition of inflammasome activity once inflammasome is activated, IL-1β ELISA in THP-1 cells; type: cell-based, human; conditions: LPS 24 hrs, then ATP and AP39 24 hrs, FIG. 36
Experimental: Human THP-1 cells were cultured in RPMI medium and exposed to bacterial endotoxin (lipopolysaccharide; LPS) (1 μg/ml) for 24 hrs, followed by ATP (5 mM) and AP39 for 24 hrs. After this time cell culture media was collected and inflammasome activity determined by measuring IL-1β levels in the culture media by commercial ELISA (Human IL-1 beta ELISA Ready-SET-Go, eBioscience) (FIG. 36). Data are mean+/−standard deviation (n=3).

HMEC [9] = test: Cell death induced by inhibitors of endogenous H2S synthesis (AOAA, PAG); type: cell-based, human; conditions: FIGS. 5-7, p<0.001
Text: In the data shown in FIGS. 5 to 7, ###=p<0.001 compared to the control; ***=p<0.001 compared to inhibitors.

[10] = biological target: T1, CAv3.1 T-type calcium channels (Homo sapiens, UniProt O43497); test: T-type calcium channel CAv3.1 whole cell patch-clamp in HEK 293 cells; type: cell-based; conditions: HEK293 cells, concentration and time-dependent, holding potential −100 mV, FIGS. 29-31
T1 construct: expressed in transfected cells; host or cells: HEK 293 cells, permanently transfected
T1 sequence (O43497 whole entry): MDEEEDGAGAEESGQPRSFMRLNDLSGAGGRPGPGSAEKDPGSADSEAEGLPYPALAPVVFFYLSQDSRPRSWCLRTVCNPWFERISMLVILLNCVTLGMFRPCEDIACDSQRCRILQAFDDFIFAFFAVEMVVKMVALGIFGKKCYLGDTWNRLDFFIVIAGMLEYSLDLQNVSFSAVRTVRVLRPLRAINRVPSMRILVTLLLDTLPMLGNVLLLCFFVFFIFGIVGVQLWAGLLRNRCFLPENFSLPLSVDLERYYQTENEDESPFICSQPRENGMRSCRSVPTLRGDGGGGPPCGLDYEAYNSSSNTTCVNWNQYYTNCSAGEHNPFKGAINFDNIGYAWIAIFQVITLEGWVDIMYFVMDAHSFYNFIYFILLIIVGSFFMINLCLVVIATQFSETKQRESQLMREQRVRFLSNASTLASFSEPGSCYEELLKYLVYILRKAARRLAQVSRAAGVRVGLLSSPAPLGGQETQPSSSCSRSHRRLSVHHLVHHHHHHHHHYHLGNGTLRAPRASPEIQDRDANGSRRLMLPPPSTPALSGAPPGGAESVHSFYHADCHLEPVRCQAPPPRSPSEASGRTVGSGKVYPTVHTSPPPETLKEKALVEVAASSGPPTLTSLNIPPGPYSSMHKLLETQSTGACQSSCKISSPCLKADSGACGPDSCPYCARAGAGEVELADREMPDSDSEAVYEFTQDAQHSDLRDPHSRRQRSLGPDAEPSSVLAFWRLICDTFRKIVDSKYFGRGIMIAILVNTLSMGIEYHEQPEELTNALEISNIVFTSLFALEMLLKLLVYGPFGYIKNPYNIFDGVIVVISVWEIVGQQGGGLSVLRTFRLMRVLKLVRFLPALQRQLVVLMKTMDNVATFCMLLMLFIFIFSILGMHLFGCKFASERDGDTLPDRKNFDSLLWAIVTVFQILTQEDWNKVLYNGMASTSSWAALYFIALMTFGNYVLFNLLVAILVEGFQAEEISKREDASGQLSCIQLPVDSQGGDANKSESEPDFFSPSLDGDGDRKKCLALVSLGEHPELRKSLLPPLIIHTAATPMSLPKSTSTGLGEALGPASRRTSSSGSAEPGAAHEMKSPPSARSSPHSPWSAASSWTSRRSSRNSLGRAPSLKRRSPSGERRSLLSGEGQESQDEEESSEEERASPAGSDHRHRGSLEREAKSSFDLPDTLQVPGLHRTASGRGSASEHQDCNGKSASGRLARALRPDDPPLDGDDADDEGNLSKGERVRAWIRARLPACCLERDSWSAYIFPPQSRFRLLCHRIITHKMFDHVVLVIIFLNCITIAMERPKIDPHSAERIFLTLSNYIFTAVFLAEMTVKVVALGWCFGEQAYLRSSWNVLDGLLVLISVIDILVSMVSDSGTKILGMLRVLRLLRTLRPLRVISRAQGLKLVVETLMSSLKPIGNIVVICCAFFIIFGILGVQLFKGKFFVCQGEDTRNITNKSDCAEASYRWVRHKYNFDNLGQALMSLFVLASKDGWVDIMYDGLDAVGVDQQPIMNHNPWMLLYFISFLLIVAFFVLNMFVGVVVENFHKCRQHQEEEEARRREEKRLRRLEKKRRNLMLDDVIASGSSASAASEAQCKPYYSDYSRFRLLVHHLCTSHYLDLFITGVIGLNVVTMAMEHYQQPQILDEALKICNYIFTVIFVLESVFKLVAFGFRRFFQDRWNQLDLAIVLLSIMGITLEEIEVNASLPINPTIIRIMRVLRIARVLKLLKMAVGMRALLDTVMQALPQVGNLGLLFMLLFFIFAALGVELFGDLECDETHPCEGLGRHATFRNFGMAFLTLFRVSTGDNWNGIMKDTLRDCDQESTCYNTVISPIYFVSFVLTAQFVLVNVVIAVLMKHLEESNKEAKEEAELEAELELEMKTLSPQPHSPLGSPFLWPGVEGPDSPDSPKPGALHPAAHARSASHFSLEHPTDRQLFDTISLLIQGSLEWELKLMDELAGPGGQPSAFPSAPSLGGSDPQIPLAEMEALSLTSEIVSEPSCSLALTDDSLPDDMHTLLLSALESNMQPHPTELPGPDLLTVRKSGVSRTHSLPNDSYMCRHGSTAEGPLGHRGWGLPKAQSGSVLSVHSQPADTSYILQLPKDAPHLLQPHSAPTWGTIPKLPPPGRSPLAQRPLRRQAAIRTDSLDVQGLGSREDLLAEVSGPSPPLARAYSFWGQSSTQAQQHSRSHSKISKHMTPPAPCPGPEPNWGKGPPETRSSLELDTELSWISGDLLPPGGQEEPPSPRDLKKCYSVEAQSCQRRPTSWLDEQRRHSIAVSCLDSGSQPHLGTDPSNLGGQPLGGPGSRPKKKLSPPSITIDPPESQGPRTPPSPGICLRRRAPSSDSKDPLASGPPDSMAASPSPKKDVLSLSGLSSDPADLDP
Experimental: CAv3.1 calcium channels were permanently transfected in human embryonic kidney (HEK 293) cells and the calcium currents were measured by a patch-clamp method in the whole cell configuration, from a holding potential −100 mV.
The effect of four different concentrations of AP39 on the current through a Cav3.1 channel was tested (FIGS. 29-31).

HMEC [11] = test: Mitochondrial oxidative stress measurements (MitoSox Red); type: cell-based, human; conditions: for mitochondrial superoxide formation induced by 4-HNE (MitoSOX red): 4-HNE 10 μM; for mitochondrial superoxide formation induced by H2O2 (MitoSOX red): H2O2 50 μM, FIG. 17
Experimental: HMEC were incubated with H2S donor compounds for 5 hrs then the oxidants H2O2, SIN-1 or […] added for 2 hrs. We used a mitochondria-selective oxidant probe MitoSox Red (final concentration, 5 μM) to detect mitochondria-derived oxidant species by fluorescence using a Gemini M2e microplate reader (excitation wavelength 510 nm, emission wavelength, 580 nm). The method was performed in accordance with the method described by M. Whiteman et al (Meths. Mol. Biol., 2008, 476, 29-50) and R. A. Quintanilla et al (J Biol Chem., 2008, 284, 18754-18766).

[12] = test system: adrenaline-precontracted rat aorta; test: Relaxation of adrenaline precontracted rat aortic rings; conditions: AP39 1-5 μM, 200 nmol/l adrenaline, FIG. 23 A-C
Experimental: as §1

inflammasome [13] = test: Inhibition of inflammasome activation (LPS/ATP), IL-1β ELISA in THP-1 cells; type: cell-based, human; conditions: AP39 with LPS 1 μg/ml 24 hrs, then ATP 5 mM 24 hrs, FIG. 35
Experimental: Human THP-1 cells were cultured in RPMI medium and incubated with AP39 and bacterial endotoxin (lipopolysaccharide; LPS) (1 μg/ml) for 24 hrs, followed by ATP (5 mM) for an additional 24 hrs. After this time cell culture media was collected and inflammasome activation determined by measuring […] levels in the culture media by commercial ELISA (Human IL-1 beta ELISA Ready-SET-Go, eBioscience) (FIG. 35). Data are mean+/−standard deviation (n=3).

cancer = conditions: in vitro and in vivo; cited from earlier work
[14] = 1.6 μM/kg and 2.7 μM/kg AP39 injected, FIG. 20
[15] = Wistar or SHR rats, Na2S, summary statement, dose not given

With O=C(CCCCCCCCC[P+](c1ccccc1)(c1ccccc1)c1ccccc1)Oc1ccc(-c2cc(=S)ss2)cc1.[Br-] [AP39] the “vasodilatory effect on adrenaline-precontracted mesenteric arteries” value (mesenteric arteries) was “vasodilatory effects”, the “Nrf2 transcription factor activation (luciferase activity)” value ([1]; AREc32 cells, AP39 6.25 μM pre-treatment 4 h) was “activates” and the “potency at inducing Nrf2 activation compared with GYY4137” value ([1]; equimolar concentrations (6.25 μM)) was “more potent”. The blood pressure ([2]; SHR rats, 1.5 μM/kg AP39 injected, FIG. 21) was “Sustained blood pressure lowering effects”, the heart rate ([2]; hypertensive (SHR) rats, AP39, summary statement) was “reducing” and the “Prx3 oxidation by H2O2” value (peroxiredoxin 3 (Prx3); 5 μM AP39 for 4 hours then 25 μM H2O2 for 1 minute, FIG. 33) was “reduced”. The “levels of the over-oxidised monomeric form of Prx3” value (peroxiredoxin 3 (Prx3); 25 μM H2O2, increasing concentrations of AP39, FIGS. 32 and 33) was “reduced”, the blood pressure [3, 14] was “reduced” and the breathing rate [3, 14] was “transiently increased”. The heart rate [3, 14] was “reduced”, the blood pressure ([3]; AP39 4 μM/kg, FIG. 22) was “sustained blood pressure (A) and heart rate (B) lowering effects” and the heart rate ([3]; AP39 4 μM/kg, FIG. 22) was “sustained blood pressure (A) and heart rate (B) lowering effects”. For the same compound, the “effectiveness relative to Na2S at influencing blood pressure, heart rate and breathing rate” value ([3]; rats, FIGS. 20 to 22) was 10-50 times, the “mean open time of the channel” value ([4]; AP39 20 μmol/l, 0 mV, control 11 ms, FIG. 27) was 33 ms and the “amplitude of the electrical current through the single chloride channels” value ([4]; AP39 20 and 40 μM, 0 mV, FIGS. 24 and 25) was “increased”. For the same compound, the channel open probability ([4]; FIGS. 24-28) was “increased”, the “mean chloride channel open time, concentration dependence” value ([4]; concentration dependent manner, FIG. 28) was “increased” and the “conductance of chloride channels” value ([4]; control channel 125 pS, FIG. 26) was “increased”. The “Cl−/K+ channel permeability ratio” value ([4]; control ratio 9.6, FIG. 26) was “did not influence”, the channel reversal potential ([4]; with AP39, control ~−31 mV, FIG. 26) was ~−31 mV and the “4-HNE-derived intracellular oxidant species (DCFDA assay)” value (HMEC [5]; AP39 100 nM) was “significantly reduced; also recorded: significantly decreased”. The “time dependent increase in intracellular oxidative stress (DCFDA assay)” value (HMEC [5]; pretreatment with AP39 100 nM) was “reduced”, the H2O2-induced cytotoxicity [6] was “inhibited” and the “SIN-1 and 4-HNE induced cell death” value [6] was “significantly inhibited”. The “cell death induced by 4-HNE” value [6] was “significantly inhibited”, the “cell death induced by SIN-1” value [6] was “significantly inhibited” and the “concentration mediating inhibition of cell death, mitochondrial dysfunction and oxidative stress” value [6] was 50 to 200 nM. The “oxidant-induced mitochondrial membrane potential (Δψm) collapse” value (HMEC [7]; AP39 100 nM) was “inhibition”, the “inflammasome activity after activation by LPS/ATP (IL-1β levels)” value (inflammasome [8]) was “inhibited” and the “AOAA, PAG and AOAA/PAG induced cell death” value (HMEC [9]; AP39 100 nM) was “significantly inhibited”. The “concentration of AP39 inhibiting CAv3.1 T-type calcium channels” value [10] was > 300 nM, the “mitochondrial superoxide formation induced by 4-HNE (MitoSOX red)” value (HMEC [11]; AP39 0.1 μM, FIGS. 16 and 18) was “significantly reduced” and the “lower concentration than GYY4137 for reduction of mitochondrial superoxide” value (HMEC [11]; AP39 0.1 μM versus GYY4137 100 μM) was 1,000 fold. For the same compound, the “mitochondrial superoxide formation induced by H2O2 (MitoSOX red)” value (HMEC [11]; AP39 0.1 μM) was “reduced”, the “vasodilatory effect on adrenaline-precontracted rat aorta” value [12] was “vasodilatory effects” and the “IL-1β levels in the cell culture media (inflammasome activation)” value (inflammasome [13]) was “reduced”.

With [Na+].[Na+].[S-2] [Na2S, reference compound] the blood pressure [2, 15] was “did not reduce blood pressure”, the heart rate [2, 15] was “did not decrease heart rate” and the blood pressure ([3]; 3 μM/kg Na2S injected, FIG. 20) was “no effect; also recorded: not observed”. The breathing rate ([3]; 3 μM/kg Na2S injected, FIG. 20) was “no effect” and the heart rate ([3]; 3 μM/kg Na2S injected, FIG. 20) was “no effect; also recorded: not observed”.

In the case of “morpholin-4-ium 4-methoxyphenyl(morpholino) phosphinodithioate [GYY4137, reference compound]”, the “4-HNE-derived intracellular oxidant species (DCFDA assay)” value (HMEC [5]; GYY4137 100 μM) is reported as “significantly reduced; also recorded: significantly decreased”, the “time dependent increase in intracellular oxidative stress (DCFDA assay)” value (HMEC [5]; pretreatment with GYY4137 100 μM) is reported as “reduced” and the “oxidant-induced mitochondrial membrane potential (Δψm) collapse” value (HMEC [7]; GYY4137 100 μM) is reported as “inhibition”. The “AOAA, PAG and AOAA/PAG induced cell death” value (HMEC [9]; GYY4137 100 μM) was “significantly inhibited”, the anti-cancer effects (cancer) was “anti-cancer effects” and the “mitochondrial superoxide formation induced by 4-HNE (MitoSOX red)” value (HMEC [11]; GYY4137 100 μM, FIG. 16) was “reduced”. For the same compound, the “mitochondrial superoxide formation induced by H2O2 (MitoSOX red)” value (HMEC [11]; GYY4137 100 μM) was “reduced”.
